Experimental data: patent US9371295B2, “Compounds for use in the treatment of disorders that are ameliorated by inhibition of HDAC” (IRBM—Science Park S.p.A., priority 2012, dated 2016)

Legend:
K562 cells = assay: Erythroid differentiation of K562 cells by benzidine staining; type: cell-based, human; details: optimized concentration, mean ± SD of six experiments
Procedure: The biological activity of the compounds of the present application was evaluated by examining the capacity to modulate the expression of γ-globin genes in the human K562 cell line, which is capable of differentiating in the erythroid manner by expressing genes for γ-globin if treated with modifiers of the biological response that are suitable for the purpose (Bianchi et al, J. Haematol., 113, 4, p. 951-961, 2001). The human K562 cells were cultured in RPMI 1640 medium (Sigma, St Louis, Mo., USA) supplemented with 10% foetal bovine serum (FBS; Analitical de Mori, Milan, Italy), 100 units/mL penicillin and 100 μg/mL streptomycin. Cell growth was determined according to cell number/ml, using a cell counter (Coulter Electronics, Hialeah, Fla., USA). For experiments, K562 cell cultures were initiated at 3×10^4/mL and the chemical inducers at the indicated concentrations added. Following 3-5 days incubation without a medium change erythroid differentiation was determined by staining the cells in a solution containing 0.2% benzidine in 0.5 M glacial acetic acid, 10% H2O2. Benzidine positivity indicates the presence of intracellular Hb.
The erythroid differentiation of K562 cells was investigated following treatment with selected compounds of the invention. The effect on cell proliferation was first determined for all tested molecules by culture of K562 cells in the presence of increasing concentration of the compounds. The cell number per sample was then determined after 3, 4 and 5 days. The IC50 values reported in Table 3 for the antiproliferative effect were calculated from the concentration of the compounds necessary to decrease the cell number to 50% of the values obtained in control untreated K562 cell cultures, after a 5 days culture period. Erythroid differentiation was measured by benzidine staining after 5, 6 and 7 days of cell culture and by quantitative reverse transcriptase polymerase-chain reaction (RT-qPCR) to quantify the expression of γ-globin mRNA. Different concentrations of tested compounds were employed because of their differing antiproliferative effects; accordingly, concentrations were chosen to maximize the erythroid induction effect without extensive reduction of cell viability. In Table 3 the % of benzidine positive cells and the increase in γ-globin mRNA assayed by RT-qPCR after 6 days of culture period are reported.
Table 4 reports induction of erythroid differentiation in K562 cells treated with an optimized concentration of the compound 2 in comparison with known inducers. Compound 2 is able to stimulate an increase of the proportion of benzidine-positive (hemoglobin producing) K562 cells. This is associated with an increase of the expression of γ-globin mRNA.

[1] = system: human γ-globin promoter (EGFP reporter) in K562 cells; assay: HbF activation assay on K562 (EGFP/RFP reporter model system for screening of inducers of fetal hemoglobin); type: cell-based; details: 60 hours
Outline: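 K562 cells stably carrying EGFP under the human γ-globin promoter and far-red FP under the β-globin promoter, with the LCR, were seeded at 1000 cells/well. Cells were exposed to compounds (0.25% DMSO final) for 60 h at 37 °C. Fluorescence was read by plate cytometry, normalized to Hoechst nuclei count, which also indicated proliferation or death.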

HDAC1 = target: T1, HDAC1 (Homo sapiens, UniProt Q13547); assay: HDAC1 assay (Fluor-de-Lys fluorescent deacetylase assay); type: biochemical; details: read-out: hHDAC IC50
T1 construct: made in house
Outline: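 Serially diluted compounds were pre-incubated with purified FLAG-tagged HDAC1 (1-2 nM final; from transfected HeLa cells) or HeLa nuclear extract, then given the Fluor-de-Lys acetyl-lysine substrate/developer; deacetylation read as fluorescence. Reactions were stopped with TSA (3 uM final).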

HDAC in Hela cells = assay: HDAC Hela Cell Based assay

T1 sequence (Q13547 whole entry): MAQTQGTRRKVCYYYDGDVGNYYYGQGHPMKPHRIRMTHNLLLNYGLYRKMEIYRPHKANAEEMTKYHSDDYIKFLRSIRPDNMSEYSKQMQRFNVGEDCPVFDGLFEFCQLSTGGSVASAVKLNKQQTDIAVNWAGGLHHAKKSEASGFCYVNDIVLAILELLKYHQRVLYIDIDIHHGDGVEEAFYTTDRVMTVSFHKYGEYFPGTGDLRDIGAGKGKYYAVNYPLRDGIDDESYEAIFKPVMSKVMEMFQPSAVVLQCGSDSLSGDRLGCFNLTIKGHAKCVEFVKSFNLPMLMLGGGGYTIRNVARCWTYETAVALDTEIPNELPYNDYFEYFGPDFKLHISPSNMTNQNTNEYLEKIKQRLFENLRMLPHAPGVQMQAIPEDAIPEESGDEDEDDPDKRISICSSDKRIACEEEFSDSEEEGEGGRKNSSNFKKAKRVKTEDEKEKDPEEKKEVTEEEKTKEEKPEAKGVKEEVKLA

EC50 [1] | IC50 (HDAC1) | IC50 (HDAC in Hela cells) | SMILES | Benzidine positive cells (%) (K562 cells)
 |  |  | Oc1ccc(C=Cc2cc(O)cc(O)c2)cc1 [Resveratrol, reference compound] | 70 ± 8.5%
 |  |  | N.N.[Cl][Pt][Cl] [Cisplatin, reference compound] | 63 ± 8.5%
 |  |  | Nc1ccn([C@@H]2O[C@H](CO)[C@@H](O)[C@@H]2O)c(=O)n1 [Cytosin arabinoside, reference compound] | 75 ± 5.4%
 |  |  | O=c1ccc2ccc3occc3c2o1 [Angelicin, reference compound] | 62 ± 8.5%
> 1000 nM | < 100 nM | < 100 nM | CCC(=O)CCCCC[C@H](NC(=O)c1cncs1)c1ncc(-c2cc3ccccc3nc2OC)o1 [Compound 40, (S)-N-(1-(5-(2-methoxyquinolin-3-yl)oxazol-2-yl)-7-oxononyl)thiazole-5-carboxamide] | 
> 1000 nM | < 100 nM | 100 to 1000 nM | CCC(=O)CCCCC[C@H](NC(=O)Cc1cc2ncccn2n1)c1ncc(-c2cc3ccccc3nc2OC)o1 [Compound 89, (S)-N-(1-(5-(2-methoxyquinolin-3-yl)oxazol-2-yl)-7-oxononyl)-2-(pyrazolo[1,5-a]pyrimidin-2-yl)acetamide] | 
> 1000 nM | < 100 nM | 100 to 1000 nM | CCC(=O)CCCCC[C@H](NC(=O)Cn1nc(C)cc1C)c1ncc(-c2cc3ccccc3nc2OC)o1 [Compound 81, (S)-2-(3,5-dimethyl-1H-pyrazol-1-yl)-N-(1-(5-(2-methoxyquinolin-3-yl)oxazol-2-yl)-7-oxononyl)acetamide] | 
 |  |  | NC(=O)NO [Hydroxyurea, reference compound] | 30 ± 7.5%
> 1000 nM | < 100 nM | 100 to 1000 nM | CCC(=O)CCCCC[C@H](NC(=O)[C@@H]1C[C@H](F)CN1C)c1ncc(-c2cc3ccccc3nc2OC)o1 [Compound 66, (2S,4S)-4-fluoro-N-((S)-1-(5-(2-methoxyquinolin-3-yl)oxazol-2-yl)-7-oxononyl)-1-methylpyrrolidine-2-carboxamide] | 
> 1000 nM | 100 to 1000 nM | > 1000 nM | CCC(=O)CCCCC[C@H](NC(=O)CCC1CCCN(C)C1)c1ncc(-c2ccccc2)o1 (stereo partly drawn) [Compound 25, 3-(1-methylpiperidin-3-yl)-N-((S)-7-oxo-1-(5-phenyloxazol-2-yl)nonyl)propanamide] | 
> 1000 nM | < 100 nM | > 1000 nM | CCC(=O)CCCCC[C@H](NC(=O)[C@@H]1CSC(=O)N1)c1ncc(-c2ccccc2)o1 [Compound 13, (R)-2-oxo-N-((S)-7-oxo-1-(5-phenyloxazol-2-yl)nonyl)thiazolidine-4-carboxamide] | 
> 1000 nM | < 100 nM | 100 to 1000 nM | CCC(=O)CCCCC[C@H](NC(=O)c1cc(C)nn1C)c1ncc(-c2cc3ccccc3nc2OC)o1 [Compound 96, (S)-N-(1-(5-(2-methoxyquinolin-3-yl)oxazol-2-yl)-7-oxononyl)-1,3-dimethyl-1H-pyrazole-5-carboxamide] | 
> 1000 nM | < 100 nM | 100 to 1000 nM | CCC(=O)CCCCC[C@H](NC(=O)C1CN(C)C1)c1ncc(-c2ccc(-n3cccn3)cc2)o1 [Compound 61, (S)-N-(1-(5-(4-(1H-pyrazol-1-yl)phenyl)oxazol-2-yl)-7-oxononyl)-1-methylazetidine-3-carboxamide] | 
100 to 1000 nM | < 100 nM | 100 to 1000 nM | CCC(=O)CCCCC[C@H](NC(=O)CCc1cnn(C)c1)c1ncc(-c2cc3ccccc3nc2OC)o1 [Compound 93, (S)-N-(1-(5-(2-methoxyquinolin-3-yl)oxazol-2-yl)-7-oxononyl)-3-(1-methyl-1H-pyrazol-4-yl)propanamide] | 
> 1000 nM | 100 to 1000 nM | > 1000 nM | CCC(=O)CCCCC[C@H](NC(=O)Cn1c(C)nc2ccccc21)c1ncc(-c2ccccc2)o1 [Compound 18, (S)-2-(2-methyl-1H-benzo[d]imidazol-1-yl)-N-(7-oxo-1-(5-phenyloxazol-2-yl)nonyl)acetamide] | 
> 1000 nM | < 100 nM | 100 to 1000 nM | CCC(=O)CCCCC[C@H](NC(=O)C1CN(C(C)=O)C1)c1ncc(-c2cc3ccccc3nc2OC)o1 [Compound 55, (S)-1-acetyl-N-(1-(5-(2-methoxyquinolin-3-yl)oxazol-2-yl)-7-oxononyl)azetidine-3-carboxamide] | 
> 1000 nM | < 100 nM | < 100 nM | CCC(=O)CCCCC[C@H](NC(=O)Cc1c(C)[nH]c2ccc(OC)cc12)c1nnc(-c2cc3ccccc3nc2OC)o1 [Compound 48, (S)-2-(5-methoxy-2-methyl-1H-indol-3-yl)-N-(1-(5-(2-methoxyquinolin-3-yl)-1,3,4-oxadiazol-2-yl)-7-oxononyl)acetamide] | 
> 1000 nM | < 100 nM | > 1000 nM | CCC(=O)CCCCC[C@H](NC(=O)C1CCN(C)CC1)c1ncc(-c2cccc3c2OCCO3)o1 [Compound 5] | 
> 1000 nM | < 100 nM | 100 to 1000 nM | CCC(=O)CCCCC[C@H](NC(=O)C1CN(C)C1)c1ncc(-c2ccc(-c3ccc(OC)nc3)cc2)o1 [Compound 65, (S)-N-(1-(5-(4-(6-methoxypyridin-3-yl)phenyl)oxazol-2-yl)-7-oxononyl)-1-methylazetidine-3-carboxamide] | 
> 1000 nM | 100 to 1000 nM | 100 to 1000 nM | CCC(=O)CCCCC[C@H](NC(=O)C(=O)N(C)C)c1ncc(-c2cc3ccccc3nc2OC)o1 [Compound 36, (S)-N1-(1-(5-(2-methoxyquinolin-3-yl)oxazol-2-yl)-7-oxononyl)-N2,N2-dimethyloxalamide] | 
> 1000 nM | < 100 nM | 100 to 1000 nM | CCC(=O)CCCCC[C@H](NC(=O)Cc1ncccn1)c1ncc(-c2cc3ccccc3nc2OC)o1 [Compound 79, (S)-N-(1-(5-(2-methoxyquinolin-3-yl)oxazol-2-yl)-7-oxononyl)-2-(pyrimidin-2-yl)acetamide] | 
> 1000 nM | < 100 nM | 100 to 1000 nM | CCC(=O)CCCCC[C@H](NC(=O)C(C)n1cccn1)c1ncc(-c2cc3ccccc3nc2OC)o1 (stereo partly drawn) [Compound 102, N-((S)-1-(5-(2-methoxyquinolin-3-yl)oxazol-2-yl)-7-oxononyl)-2-(1H-pyrazol-1-yl)propanamide] | 
> 1000 nM | 100 to 1000 nM | > 1000 nM | CCC(=O)CCCCC[C@H](NC(=O)C1CCCCCN1C)c1ncc(-c2ccccc2)o1 (stereo partly drawn) [Compound 21, 1-methyl-N-((S)-7-oxo-1-(5-phenyloxazol-2-yl)nonyl)azepane-2-carboxamide] | 
> 1000 nM | < 100 nM | 100 to 1000 nM | CCC(=O)CCCCC[C@H](NC(=O)Cn1ccnn1)c1ncc(-c2cc3ccccc3nc2OC)o1 [Compound 59, (S)-N-(1-(5-(2-methoxyquinolin-3-yl)oxazol-2-yl)-7-oxononyl)-2-(1H-1,2,3-triazol-1-yl)acetamide] | 
> 1000 nM | < 100 nM | > 1000 nM | CCC(=O)CCCCC[C@H](NC(=O)C1CCN(C)CC1)c1ncc(-c2ccccc2)o1 [Compound 3, (S)-1-methyl-N-(7-oxo-1-(5-phenyloxazol-2-yl)nonyl)piperidine-4-carboxamide] | 
 |  |  | CCCC(=O)O [Butyric acid, reference compound] | 32 ± 6.4%
